Data taken from publication PMC12392461, “Beyond Estrogenicity: A Comparative Assessment of Bisphenol A and Its Alternatives in In Vitro Assays Questions Safety of Replacements” (Environmental Science & Technology, 2025).
Read-outs that look alike come from different tables or passages of the source.

Key:
[1] = test system: Mitochondrial Membrane Potential; test: cells; details: for EC10, linear: linear model; for Specificity ratio (SRbaseline) SRMMP: against baseline cytotoxicity; for Specificity ratio (SRcytotoxicity) SRMMP: against experimental cytotoxicity; for Relative effect potency REPMMP: relative to BPA
Excerpt: (§1) All bioassay media components and the ERα-UAS-bla GripTite and PPARγ-UAS-bla cells were obtained from Thermo Fisher Scientific (Waltham, MA, USA). AREc32 reporter gene cells based on MCF7 were provided by C. Roland Wolf (Cancer Research UK); AhR CALUX cells (H4L7.5c2 derived from H4IIe) were provided by Michael Denison (UC Davis, USA); and SH-SY5Y cells were purchased from Sigma-Aldrich.
(§2) Cell culture conditions and bioassay protocols including response detection are provided in Text S2.1–2.4 and Table S3. − Cell viability was determined from cell confluency using an IncuCyte S3 Live-Cell Analysis System (Sartorius AG, Essen, Germany) before and after exposure, except for SH-SY5Y cells (live–dead staining with Nuclear Green LcS1 and propidium iodide, Abcam, UK). For metabolic activation experiments, cell viability was assessed using the ToxBLAzer DualScreen Kit (Thermo Fisher Scientific) to capture the remaining toxicity in ERα-UAS-bla GripTite after treatment with the aCYP catalyst (details in Text S2.4).
For ARE, the concentration that triggered an induction ratio of 1.5 (ECIR1.5) was used as the benchmark value, as detailed in Text S2.5. IC10 values also served as a threshold for data analysis in all assays; only concentrations below IC10 were considered when deriving EC10 or ECIR1.5. […]
(§3) S2: Cell culture and bioassays
(§4) S2.1: Cell Culturing Conditions
(§5) All suppliers and sources are given in detail in SI-Excel S3. The bioassay media for the different assays were prepared as follows: Assay medium for ER alpha-UAS-bla GripTite (ERα) and […]
2% charcoal-stripped FBS, and 100 U/mL penicillin-streptomycin. MitoOxTox and AhR assay medium was comprised of 90% DMEM with GlutaMAX, supplemented with 10% FBS, and 100 U/mL penicillin-streptomycin. […]
(§6) S2.2: Cell Seeding and Incubation. For all bioassays, cell suspensions in the respective assay medium were dispensed into each well of 384-well plates using a MultiFlo Dispenser (Biotek, (now Agilent), Winooski, VT, U.S.). After seeding, the plates were incubated at 37° C and 5% CO₂ for […]. The final cell densities and plate types were as follows: Black poly-D-lysine […]
6500 cells/well, ERα: 5000 cells/well. White 384-well plates with a clear bottom (Product No.
NYC, U.S.) for AhR: 3250 cells/well. Black Collagen I coated plates were used (Product No.
S2.3: Chemical Dosing and Assay Analysis Procedures. The dosing procedure and high-throughput assay workflow have been described in detail before. 9 The dosing concentrations […]
Stock solutions were then either

physchem = details: for Double negative form (pH = 7.40) / Negative form (pH = 7.40) / Neutral form (pH = 7.40) / αneutral % (fraction of neutral species): from experimental pKa; for pKa: pKa (Acid); for αneutral % (fraction of neutral species): pH 7.4
Method: Physicochemical properties provide input parameters for the baseline toxicity model. Acidity constants (pK a) and octanol–water partition constants of the neutral species (K ow) were measured with a Sirius T instrument from Pion Inc. (Sussex, UK) (Text S1.2 and Table S1). A detailed description of the pK a and K ow measurements can be found in literature. , […]
S1.2: pKa and log Kow measurements […]
titrator (Pion Inc., Sussex, U.K.). A detailed description of the experimental procedure is available in the literature.1 In brief, each sample was prepared by mixing 5 µL of a 10 mM dimethyl sulfoxide (DMSO) stock solution with 25 µL of a phosphate buffer solution (14.4 mM […]
A reference vial containing 5 µL of DMSO
(Roth, A994-100 ML) and 25 µL of phosphate buffer was analyzed alongside each sample.
The pKa values were determined using the automated UV-metric pKa protocol within the Sirius T3 Control software (version 2.0.0.0.). Each sample was subjected to three consecutive […]
from 2 to 12 by stepwise addition of 0.5 M HCl or 0.5 M potassium hydroxide while recording […]
UV absorbance. […]
To ensure reproducibility, measurements were conducted on at least two

[2] = target: T1, Peroxisome proliferator-activated receptor γ (Homo sapiens, UniProt P37231); test: cell-based; details: for EC10, linear / logEC10 / EC10, linear transformed: PPARγ bioassay; for EC10, linear: linear model; for logEC10: log-logistic model; for EC10, PPARγ (M): 10% of maximum effect of rosiglitazone; for SR-ScorePPARγ: SR-Score, sigma k=1, x=5; for Specificity ratio (SRbaseline) SRPPARγ: against baseline cytotoxicity; for Specificity ratio (SRcytotoxicity) SRPPARγ: against experimental cytotoxicity; for EC10, PPARγ: effect; for log(1/EC10) PPARγ: input of the ToxPi score, values up to 1.00; for Emax: read-out: Emax%PPARγ
T1 sequence (P37231 238-505 limits assumed): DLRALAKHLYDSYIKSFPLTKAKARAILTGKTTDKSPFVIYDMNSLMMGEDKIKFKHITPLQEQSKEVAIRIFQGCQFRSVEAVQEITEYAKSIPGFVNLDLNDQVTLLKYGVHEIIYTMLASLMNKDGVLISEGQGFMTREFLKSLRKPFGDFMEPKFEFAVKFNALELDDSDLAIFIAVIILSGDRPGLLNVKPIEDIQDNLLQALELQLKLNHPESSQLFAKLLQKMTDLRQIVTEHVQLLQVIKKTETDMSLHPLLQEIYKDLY
Excerpt: as §1, §2
For ARE, the concentration that triggered an induction ratio of 1.5 (ECIR1.5) was used as the benchmark value, as detailed in Text S2.5. IC10 values also served as a threshold for data analysis in all assays; only concentrations below IC10 were considered when deriving EC10 or ECIR1.5.
The maximum efficacy (Emax%) refers to the maximum of the log–logistic concentration–response curve attained by test chemicals compared to the reference chemical’s maximum and was obtained for both ERα and PPARγ. […]
as §3, §4, §5
2% charcoal-stripped FBS, and 100 U/mL penicillin-streptomycin. […]
as §6
6500 cells/well, ERα: 5000 cells/well. White 384-well plates with a clear bottom (Product No. […]
S2.3: Chemical Dosing and Assay Analysis Procedures.

[3] = Arec32, read-out: EC10, linear transformed
[4] = Arec32, read-out: EC10, MMP (M)
[5] = second pKa column, experimental, this study

SMILES | EC10 [1, 3] [M] | EC10, linear ([1]; MMP bioassay, dosing range all) | pKa (Acid) (physchem) | Double negative form (pH = 7.40) (physchem) [%] | Negative form (pH = 7.40) (physchem) [%] | Neutral form (pH = 7.40) (physchem) [%] | pKa (physchem) | EC10, linear ([2]; dosing range all) | logEC10 ([2]; dosing range all) | EC10 ([1]; Arec32, read-out: EC10, MMP) [M] | EC10 [1, 4] [M] | EC10 ([1]; Arec32, read-out: EC10, linear) [M] | EC10 ([1]; Arec32, read-out: logEC10) [M] | Specificity ratio (SRbaseline) SRMMP [1] | Specificity ratio (SRcytotoxicity) SRMMP [1] | Relative effect potency REPMMP [1] | αneutral % (fraction of neutral species) (physchem) [%] | EC10, PPARγ (M) [2] | SR-ScorePPARγ [2] | Specificity ratio (SRbaseline) SRPPARγ [2] | other results
CC(c1ccccc1)(c1ccc(O)cc1)c1ccc(O)cc1 [BPAP, 4,4'-(1-Phenylethylidene)bisphenol] | 2.84e-05 | no effect | 9.99 | 0.00503 | 2 | 98 | 9.1 | no effect | no effect | – | – | – | – | – | – | – | – | – | – | – | logEC10 ([1]; MMP bioassay, dosing range all, log-logistic model): no effect
CCC(C)(c1ccc(O)cc1)c1ccc(O)cc1 [BPB, 4,4'-(Butane-2,2-diyl)diphenol] | 1.62e-05 | – | 10.33 | 0.000865 | 0.736 | 99 | 9.53 | no effect | no effect | 1.64e-05 | 1.64e-05 | 9.79e-06 | 1.62e-05 | 1.33 | 2.14 | 1.71 | 99 | – | – | – | –
CC(c1ccc(O)cc1)c1ccc(O)cc1 [BPE, 4,4′-Ethylidenbisphenol] | 3.01e-05 | no effect | 9.99 | 0.00576 | 2.24 | 98 | 9.04 | no effect | no effect | 3.21e-05 | 3.21e-05 | – | 3.24e-05 | – | – | – | 98 | – | – | – | –
Oc1ccc(Cc2ccc(O)cc2)cc1 [BPF, Bis(4-hydroxyphenyl)methane] | 0.000167 | – | 10.27 | 0.000993 | 0.736 | 99 | 9.53 | no effect | no effect | – | – | 0.000167 | 0.000166 | – | – | – | 99 | – | – | – | –
CC(C)c1cc(C(C)(C)c2ccc(O)c(C(C)C)c2)ccc1O [BPG, 2,2-Bis(4-hydroxy-3-isopropylphenyl)propane] | 3.08e-06 | – | – | 4.07e-6 | 0.0363 | 100 | – | 1.61E-07 | -6.93 | 3.12e-06 | 3.12e-06 | 2.65e-06 | 3.09e-06 | 1.70 | 2.79 | 8.97 | 100 | 1.17 × 10^–7 M | 1.00 | 12.28 | pKa (physchem; [5]): 11.3; pKa (physchem; experimental, this study): 10.8; EC10, linear transformed ([2]; dosing range all): 1.17E-07; Specificity ratio (SRcytotoxicity) SRPPARγ [2]: 54.95; EC10, PPARγ [2]: 0.117 µM; log(1/EC10) PPARγ [2]: 0.98; Emax [2]: 22%
CC(C)(c1ccc(O)c(-c2ccccc2)c1)c1ccc(O)c(-c2ccccc2)c1 [BPPH, 2,2-Bis(2-hydroxy-5-biphenylyl)propane] | 1.94e-06 | no effect | – | 0.000533 | 0.825 | 99 | – | 9.24E-07 | -6.26 | 1.96e-06 | 1.96e-06 | – | 1.95e-06 | 2.08 | 3.95 | 14.27 | 99 | 5.55 × 10^–7 M | 1.00 | 1.90 | log(1/EC10) MMP ([1]; input of the ToxPi score, values up to 1.00): 1.00; pKa (physchem; [5]): 10.6; pKa (physchem; experimental, this study): 9.48; EC10, linear transformed ([2]; dosing range all): 5.55E-07; Specificity ratio (SRcytotoxicity) SRPPARγ [2]: 12.47; EC10, PPARγ [2]: 0.555 µM; log(1/EC10) PPARγ [2]: 0.88; Emax [2]: 12%
O=S(=O)(c1ccc(O)cc1)c1ccc(O)cc1 [BPS, 4,4'-Sulfonyldiphenol] | 0.000118 | – | 8.16 | 9 | 52 | 39 | 7.28 | 1.02E-05 | no effect | 0.000117 | 0.000117 | 7.55e-05 | 0.000117 | – | – | – | 39 | – | – | – | –
O=S(=O)(c1ccc(O)cc1)c1ccc(OCc2ccccc2)cc1 [BPS-MPE, 4-[4-(benzyloxy)benzenesulfonyl]phenol] | 5.91e-06 | – | – | – | 32 | 68 | – | – | – | 5.59e-06 | 5.59e-06 | 3.72e-06 | 5.62e-06 | 6.33 | 21.99 | 5.01 | 68 | 2.35 × 10^–7 M | 1.00 | 49.84 | SR (MMP inhibition) ([1]; specificity ratio): 22; pKa (physchem; phosphate buffer with […] KCl, Sirius T3 titrator, experimental, this study): 7.73; EC10, linear transformed ([2]; dosing range high): 1.15E-09; EC10, linear ([2]; dosing range high): 1.01E-07; logEC10 ([2]; dosing range high): -8.94; EC10, linear transformed ([2]; dosing range low): 2.35E-07; EC10, linear ([2]; dosing range low): 4.02E-07; logEC10 ([2]; dosing range low): -6.63; Specificity ratio (SRcytotoxicity) SRPPARγ [2]: 570.13; EC10, PPARγ [2]: 0.235 µM; log(1/EC10) PPARγ [2]: 0.94; Emax [2]: 25%
